Read-outs that look alike come from different tables or passages of the source.
Experiments:
UTI687 [1] = assay: CMI (MIC) determination on chitosan χ1 channels; format: cell-based, Escherichia coli
Text: (§1) For each conditions, a similar result was obtained.

UTI687 [2] = assay: CMI by Vitek; format: cell-based, Escherichia coli
Text: as §1

K12 = assay: Visualization of antibiotics susceptibility; format: cell-based, Escherichia coli
Description: Visualization of antibiotics susceptibility. Two channels were prepared with K12, identically. Before starting picture acquisition, one channel was rinsed with LB media, the other one with LB media supplemented with 100 μg/ml of ampicillin. […] Morphological changes were observed earlier than 1 hour and cell death imaged by lysis occurred right after 2 hours of incubation.

UTI227 [3] = conditions: for Outcome: UTI227
Description: CMI determination. Different channels were prepared simultaneously with the same cell suspension. Antibiotic was prepared at different concentrations (one channel contained only LB as a control) and added to channel just before image acquisition: each channel contain a different antibiotic concentration. A picture was taken every 2 or 3 minutes in each channel. At the end of the acquisition we determined if concentrations tested induced cell death or not.
(§2) Minimum inhibitory concentration. Several experiments were performed with different ETP concentrations added to UTI 227 cells.

UTI227 [4] = assay: CMI by Vitek; format: cell-based, Escherichia coli
Description: as §2

UTI 687 [5] = assay: Antibiotic susceptibility from blood culture on chitosan χ1; format: cell-based, Escherichia coli; conditions: UTI 687 grown in blood culture vial
Description: Antibiotic susceptibility from blood culture. UTI 687 was cultivated in LB medium and then diluted to obtain a cell concentration close to the one find in blood during septicemia (final concentration: 5 CFU/ml). The suspension was then inoculated in culture vial for blood culture. After over-night culture (agitation, 37° C.), culture suspension was diluted in LB media for a final OD=0.01. Cells are then prepared as describe in material and method to determine cell susceptibility to ETP.
Antibiotic susceptibility from blood culture. […] These debris probably originate from blood culture media. However, it was possible to determine a CMI: CMIχ1≤1, which is coherent with the expected values.

UTI 227 = assay: Dose-dependent answer: time for cell death; format: cell-based, Escherichia coli; conditions: different concentrations
Description: (§3) Dose-dependent answer. Ertapenem (ETP) is an antibiotic used in the medical field in order to determine MIC. ETP was tested at different concentrations on UTI 227 and for each cell observed, the time for cell death was quantified (FIGS. 7B and 7C). […] Similarly, UTI 687 was contacted with different concentration of mecillinam (MEC), and the cell width was quantified.

UTI 687 cells = assay: Cell death detection with propidium iodide stain on chitosan χ1; format: cell-based, Escherichia coli; conditions: 3 mg/L, 50 μL/mL of PI
Description: Following the protocol described in material and methods, UTI 687 cells were contacted with chitosan χ1 surface. Before acquisition, channel was rinsed with LB supplemented with 3 mg/L of ETP and 50 μL/mL of PI (FIG. 11B).

K12 cells = conditions: K12 on commercial chitosan; 50 μL/mL PI; after 30 seconds
Description: Propidium iodide (PI) is used as a DNA stain which cannot cross the membrane of live cells, making it useful to differentiate dead, dying and healthy cells. K12 cells were immobilized to commercial chitosan on microfluidic chamber (channels in PDMS) in presence or absence of EtOH 70%. Channels were rinsed with LB, 50 μL/mL PI.

UTI698 [6] = assay: CMI (MIC) determination on chitosan χ1 channels; format: cell-based, Escherichia coli
Text: as §1

UTI704 [7] = assay: CMI (MIC) determination on chitosan χ1 channels; format: cell-based, Escherichia coli
Text: as §1

UTI698 [8] = assay: CMI by Vitek; format: cell-based, Escherichia coli
Text: as §1

UTI704 [9] = assay: CMI by Vitek; format: cell-based, Escherichia coli
Text: as §1

UTI 687 [10] = assay: Dose-dependent answer: cell width; format: cell-based, Escherichia coli; conditions: 2 mg/L, after 1 hour of contact
Description: as §3

[11] = concentration 0.25 (head mg/ml, title mg/L)
[12] = concentration 0.5 (head mg/ml, title mg/L)
[13] = concentration 1 (head mg/ml, title mg/L)
[14] = concentration 2 (head mg/ml, title mg/L)

`CC1COc2c(N3CCN(C)CC3)c(F)cc3c(=O)c(C(=O)O)cn1c23` (stereo not shown) [Ofloxacin, ofloxacin] was tested, and the “CMI (measured)” value (UTI687 [1]; chitosan χ1) was ≤0.25 mg/L, the Outcome (UTI687 [1]; [11]) was “Death” and the Outcome (UTI687 [1]; [12]) was “Death”. For the same compound, the Outcome (UTI687 [1]; [13]) was “Death”, the Outcome (UTI687 [1]; [14]) was “Death” and the “CMI (Vitek)” value (UTI687 [2]) was 0.5 mg/L.
In the case of `CC1(C)S[C@@H]2[C@H](NC(=O)[C@H](N)c3ccccc3)C(=O)N2[C@H]1C(=O)O` [ampicillin], the “Time at which morphological changes were observed” value (K12; 100 μg/ml) is reported as < 1 hour, the “Time of cell death imaged by lysis” value (K12; 100 μg/ml, incubation) is reported as ~2 h and the “Effect on cells (in words)” value (K12; LB supplemented with 100 μg/ml) is reported as “cells extended but did not divide”.
`C[C@@H](O)[C@H]1C(=O)N2C(C(=O)O)=C(S[C@@H]3CN[C@H](C(=O)Nc4cccc(C(=O)O)c4)C3)[C@H](C)[C@H]12` [Ertapenem] was tested, and the “Concentration above which a cytotoxic effect was observed” value (UTI227 [3]) was “above 0.01 mg/L”, the Outcome (UTI227 [3]; concentration 0.01 (mg/L)) was “Growth” and the Outcome (UTI227 [3]; concentration 0.05 (mg/L)) was “Death”. The Outcome (UTI227 [3]; concentration 0.1 (mg/L)) was “Death”, the Outcome (UTI227 [3]; concentration 0.125 (mg/L)) was “Death” and the Outcome (UTI227 [3]; concentration 0.25 (mg/L)) was “Death”. For the same compound, the Outcome (UTI227 [3]; concentration 0.5 (mg/L)) was “Death”, the Outcome (UTI227 [3]; concentration 0.75 (mg/L)) was “Death” and the “CMI (Vitek)” value (UTI227 [4]) was ≤0.5 mg/L. For the same compound, the “CMI (Vitek)” value (UTI227 [4]; listed as ETP) was ≤ 0.5 mg/L, the CMIχ1 (UTI 687 [5]) was ≤ 1 and the “Time for cell death according to concentration” value (UTI 227) was “significantly faster for a higher concentration”. The “Propidium iodide staining of cells” value (UTI 687 cells) was “some cells turned in red”.
In the case of `CCO` [EtOH 70%, EtOH], the “Propidium iodide fluorescence of cells” value (K12 cells) is reported as “all the cells incubated with EtOH were fluorescent”.
`CC1(C)S[C@@H]2[C@H](/N=C/N3CCCCCC3)C(=O)N2[C@H]1C(=O)O` [Mecillinam, mecillinam] was tested, and the Outcome (UTI227 [3]; concentration 4 (mg/L)) was “Growth”, the Outcome (UTI227 [3]; concentration 8 (mg/L)) was “Death” and the Outcome (UTI227 [3]; concentration 12 (mg/L)) was “Death”. The Outcome (UTI227 [3]; concentration 16 (mg/L)) was “Death”, the “CMI (measured)” value (UTI698 [6]; chitosan χ1) was ≤1 mg/L and the Outcome (UTI698 [6]; [13]) was “Death”. The Outcome (UTI698 [6]; [14]) was “Death”, the Outcome (UTI698 [6]; concentration 5 (head mg/ml, title mg/L)) was “Death” and the “CMI (measured)” value (UTI704 [7]; chitosan χ1) was ≤2 mg/L. For the same compound, the Outcome (UTI704 [7]; [11]) was “Growth”, the Outcome (UTI704 [7]; [12]) was “Growth” and the Outcome (UTI704 [7]; [13]) was “Growth”. For the same compound, the Outcome (UTI704 [7]; [14]) was “Death”, the “CMI (Vitek)” value (UTI227 [4]) was 8 mg/L and the “CMI (Vitek)” value (UTI698 [8]) was ≤1 mg/L. For the same compound, the “CMI (Vitek)” value (UTI704 [9]) was 2 mg/L and the Cell width (UTI 687 [10]) was “An augmentation was observed”.
